# Results: patent US8188003B2, “Method of inducing virus tolerance of plants” (BASF Aktiengesellschaft, priority 2005, dated 2012)
# How the values were obtained:
# TMV [1] = assay: Use example 3: leaf halves infiltrated, TMV infection 1 day after treatment, lesion area versus control; format: in vivo, tobacco plants (cultivar Xanthi-nc); details: 1 mM in 1% aqueous ethanol, evaluated after further 5 days
# Protocol: (§1) Leaf halves of approx. 5-weeks-old tobacco plants (cultivar Xanthi-nc) were infiltrated with 1 mM active ingredient solution in 1% aqueous ethanol; the leaf halves of the controls were infiltrated with 1% aqueous ethanol.
# (§2) Infection with TMV was carried our 1 day after treatment; the plants were evaluated after further 5 days. The data shown are the averages of the leaf areas which had died owing to viral attack (lesions) at the infection site on leaf halves treated with active ingredient or untreated leaf halves (controls):
# (§3) Area of the lesions in comparison with the control: […]
# TMV [2] = assay: Use example 5: spraying the leaves with active ingredient solutions, TMV infection 5 days after treatment, lesion area versus control; format: in vivo, tobacco plants (cultivar Xanthi-nc); details: 2 mM with universal wetter 1:1 (w/w), sprayed, evaluated after further 4 days
# Protocol: In each case 2 mM active ingredient were dissolved in water with the aid of a universal wetter in the ratio 1:1 (w/w) and sprayed onto the leaf halves of 5-week-old tobacco plants (cultivar Xanthi-nc) (leaf halves of the controls were sprayed with dissolved wetter only).
# as §2, with “out 5 days” for “our 1 day”, “the treatment, and” for “treatment;”, “4” for “5”
# as §3
# TMV [3] = assay: Use example 4: leaf halves infiltrated, TMV infection 2 days after treatment, lesion area versus control; format: in vivo, tobacco plants (cultivar Xanthi-nc); details: 1 mM in 1% aqueous ethanol, evaluated after further 5 days
# Protocol: as §1
# The procedure of use example 3 was followed, but infection was carried out 2 days after the treatment and the plants were evaluated after further 5 days.
# as §3
# [4] = system: tobacco mosaic virus (TMV, strain U1); assay: Use example 1: active ingredient solution injected into tobacco leaves, TMV infection, lesion diameter; format: in vivo, tobacco plants (Nicotinia tabacum cv. Xanthi-nc); details: injected into leaf, infection 1 day after pretreatment, after 7 days, water control 3.55 mm
# Protocol: (§4) For the experiments, tobacco plants (Nicotinia tabacum cv. Xanthi-nc) were grown at 25° C., an atmospheric humidity of 59% and a daily photoperiod of 16 hours (150-200 μM quanta/s^−1/m^−2) for 4 to 5 weeks in potting compost (standard soil type ED 73). Some of the plants were fed once per week by adding a commercial house-plant fertilizer (10% total nitrogen, 9% phosphate, 7% potash) to the irrigation water at the recommended rate.
# (§5) The formulated active ingredient used took the form of water-dispersible granules with an active ingredient content of 20%. The concentrations used in the experiments (0.01-10 mM) are based on the active ingredient content. To prevent distribution of the active ingredient in the entire plant, the stalks of plants where a leaf had been infiltrated were removed above the treated leaf, using a sterile surgical blade.
# (§6) After the application of the active ingredient, and also after infection with the virus at a later time, the plants were left to stand in the growth cabinet.
# (§7) The various pretreated tobacco plants were infected with tobacco mosaic virus (TMV, strain U1). […] Five to 7 days post-infection, the diameter of 10 to 20 lesions on the leaves was determined. […]
# After 7 days, the diameter of the lesions on the leaves caused by TMV was determined in millimeters [mm].
# [5] = system: tobacco mosaic virus (TMV, strain U1); assay: Use example 2: one leaf half infiltrated with active ingredient solution, TMV infection, lesion diameter; format: in vivo, tobacco plants (Nicotinia tabacum cv. Xanthi-nc); details: after 5 days
# Protocol: as §4, §5, §6, §7
# After 5 days, the diameter of the lesions on the leaves caused by TMV was determined in millimeters [mm].
# TMV [6] = assay: Use example 6: plant growth and tolerance to viral infection of TMV-inoculated tomato plants after spray treatment; format: in vivo, Tomato plants (cultivar Gaucho)
# Protocol: The experiments were performed in greenhouse of under appropriate growing conditions for tomatoes. Tomato plants (cultivar Gaucho) were grown in pots until development of the first two true leaves. Then the plantlets were sprayed with different concentrations of formulated Pyraclostrobin (compound I-5; commercial fungicide Cabrio Top® of BASF Aktiengesellschaft). These treatments were done either 120 hours before or following inoculation of the plantlets with TMV, representing protective and curative situation. The treatments were run with 5 replicates, each containing 3 plantlets. 30 days after last treatment the plants were analyzed for visual plant growth (altitude and dry mass) and chlorophyll content (photometric measurement of extracts). Also the virus titre was determined (ELISA).
# Same letters indicate non significant differences (Tukey; P≦0.05).
Molecule,"Area of the lesions in comparison with the control, Area in percent (TMV [1])","Area of the lesions in comparison with the control, Area in percent (TMV [2])","Area of the lesions in comparison with the control, Area In percent (TMV [3])",diameter of the lesions on the leaves caused by TMV (average) ([4]; 1 mM),diameter of the lesions on the leaves caused by TMV (average) ([4]; 2.5 mM),"diameter of the lesions on the leaves caused by TMV (average), treated leaf zones ([5]; 0.5 mM, water control plants 3.2 mm)","diameter of the lesions on the leaves caused by TMV (average), treated leaf zones ([5]; 1 mM, water control plants 3.35 mm)",effect compared with untreated plants (TMV [6]; Curative treatment),effect on growth inhibition and loss of leaf chlorophyll caused by TMV infection (TMV [6]; protective treatment)
"CNC(=O)/C(=N/OC)c1ccccc1CO/N=C(C)/C(=N/OC)C(/C)=N/OC [Compound V-16, orysastrobin]",63.8%,,,,,,,,
"CNC(=O)/C(=N/OC)c1ccccc1COc1cc(C)ccc1C [II-3, dimoxystrobin]",68.1%,49.6%,62.7%,,,,,,
"CO/C=C(/C(=O)OC)c1ccccc1Oc1cc(Oc2ccccc2C#N)ncn1 [VII-1, azoxystrobin]",62.1%,68.3%,70.4%,,,,,,
pyraclostrobin [Compound I-5],53.0%,,,2.35 mm,1.8 mm,2.75 mm,2.85 mm,no advantage compared with untreated plants,can prevent growth inhibition and loss of leaf chlorophyll caused by TMV infection
